Key:
[1] = target: T1, Human immunodeficiency virus type 1 protease (Human immunodeficiency virus 1, UniProt Q72874); assay: (§1) Inhibitory activity was evaluated against HIV-1 protease
[2] = target: T1, Human immunodeficiency virus type 1 protease; assay: as §1; remark: listed apart in the source

OC1N=C(Cc2ccccc2)P(O)(O)=C(Cc2ccccc2)N1 (configuration not stated) [4,6-Dibenzyl-5-hydroxy-5-oxo-5lambda*5*-[1,3,5]diazaphosphinan-2-one]
IC50 [1]: > 100 µM | IC50 [2]: > 100 µM
